Reference: paper PMC7587441, “Plasmodium falciparum Apicomplexan-Specific Glucosamine-6-Phosphate N-Acetyltransferase Is Key for Amino Sugar Metabolism and Asexual Blood Stage Development” (mBio, 2020)

Molecular target: T1, CpGNA1 (Cryptosporidium parvum, UniProt Q5CPU3)
T1 construct: gene SSAT; E. coli BL21 Star; GST cut off with PreScission protease, GPLGS left at N terminus; dimer (sugar site formed by both monomers)
Test: X-ray crystal structure, […] Å
Format: binding

T1 sequence (Q5CPU3 whole entry): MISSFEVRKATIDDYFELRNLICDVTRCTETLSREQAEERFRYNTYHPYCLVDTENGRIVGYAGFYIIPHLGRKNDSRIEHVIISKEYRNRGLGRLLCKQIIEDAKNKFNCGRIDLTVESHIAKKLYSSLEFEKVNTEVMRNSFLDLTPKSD

| Structure (SMILES) | X-ray crystal structure, 1.95 Å (crystal soaked with 50 mM Glc6P and 50 mM acetyl-CoA, pseudosubstrate in GlcN6P site) | X-ray crystal structure, 1.95 Å (cocrystallized with 10 mM acetyl-CoA, soaked with 50 mM acetyl-CoA and 50 mM Glc6P, acetyl-CoA site) |
| --- | --- | --- |
| O=P(O)(O)OC[C@H]1OC(O)[C@H](O)[C@@H](O)[C@@H]1O (some centres unmarked) [Glc6P] | dimeric structure of CpGNA1 in complex with acetyl-CoA and glucose-6-phosphate (Glc6P) | – |
| CC(=O)SCCNC(=O)CCNC(=O)[C@H](O)C(C)(C)COP(=O)(O)OP(=O)(O)OC[C@H]1O[C@@H](n2cnc3c(N)ncnc32)[C@H](O)[C@@H]1OP(=O)(O)O [acetyl-CoA] | – | dimeric structure of CpGNA1 in complex with acetyl-CoA and glucose-6-phosphate (Glc6P) |
